From patent publication US11730810B2, “Composition comprising an antigen and a substituted imidazo[1,2-a]pyrimidine for enhancing human immune response” (Children's Medical Center Corporation, priority 2017, dated 2023)

Legend:
[1] = test system: human adult PBMCs; assay: In vitro PBMC stimulation, TNF production by ELISA (Table 1); format: cell-based; settings: 18 hours
Description: (§1) Human adult PBMCs were stimulated for 18 hours with compound 037 and its analogs at 33 μM. Production of human TNF was assessed in cell-free supernatants by ELISA. Results are shown as the median, the 25th and 75th percentiles (boxes) and the 5th and 95th percentiles (whiskers) and expressed as percentage TNF production (TNF %) as compared to R848 (FIG. 6A) or TNF concentration in ng/ml (FIG. 6B) (N=3-5). **p<0.01 determined by repeated measure one-way ANOVA with Dunnett's multiple comparison test on log-transformed data and comparing each compound with DMSO (control condition).
as §1, with “7A)” for “6A)”, “7B) (N=5). Analogs are ranked left to right by TNF % (compound 037 on the far left). Compound 037 analogs have been classified in the following categories according to TNF %: high activity—class A: TNF %>15%; medium activity—class B: 1%<TNF %≤15%; low activity—class C: TNF %≤1%.” for “6B) (N=3-5).”
Table 1 provides the activity of exemplary compounds on stimulating TNF production in PBMCs as compared to the benchmark compound R848. Specifically, TNF production was measured by ELISA after stimulation of adult PBMCs with compound 037 analog family or the compound R848 at 33 μM for 18 hours. […]
ELISAs and Multiplex-Analyte Assays. […] Cytokine and chemokine expression profiles (e.g., IFNγ, IL-10, IL-12 (p70), IL-1β, IL-6, IL-8, MIP-1α/CCL3, TNF and GM-CSF) in cell culture supernatants were measured using a customized 9-plex Milliplex® Human Th17 Magnetic Bead Panel according to the manufacturer's instructions (Millipore, Chicago, Ill., USA). […]

[2] = test system: mouse splenocytes; assay: Splenocyte in vitro stimulation, murine IL-6 by ELISA; format: cell-based, C57BL/6 mice; settings: 33 μM, 18 hours
[3] = test system: Human adult and elderly PBMCs; assay: Stimulation of adult and elderly PBMCs, TNF and IL-1β by ELISA; format: cell-based
Description: (FIG. 2A) Human adult (top) and elderly (bottom) PBMCs stimulated for 18 hours with the TLR7/8 agonist R848 and 24 confirmed hit compounds from TNF AlphaLISA screen. TNF (left panels) and IL-1β (right panels) were assessed in cell-free supernatants by ELISA. Data are shown as median and interquartile range of N=5.
(§2) ELISAs and Multiplex-Analyte Assays. Supernatants derived from human PBMCs and DC stimulations were assayed by ELISA for TNF (ThermoFisher Scientific; Waltham, Mass., USA). Cytokine and chemokine expression profiles (e.g., IFNγ, IL-10, IL-12 (p70), IL-1β, IL-6, IL-8, MIP-1α/CCL3, TNF and GM-CSF) in cell culture supernatants were measured using a customized 9-plex Milliplex® Human Th17 Magnetic Bead Panel according to the manufacturer's instructions (Millipore, Chicago, Ill., USA). Assays were read and analyzed on the Luminex® 100/200™ System and xPOTENT® software (Luminex, Austin, Tex.). A minimum threshold was set at the minimum detectable concentration for each individual assay, defined as three standard deviations above the mean background.
In vitro PBMC stimulation. PBMCs were isolated from blood using a Ficoll density gradient. PBMCs either used fresh or stored at 5×10^7 cells per vial in 1 mL RPMI containing 20% autologous plasma and 10% DMSO at −80° C. until use. […]

[4] = test system: THP1-Lucia cells; assay: NF-kB-induced Luminescence Assay in THP1-Lucia cells; format: cell-based, human; settings: in comparison to positive control R848, N=4
Description: (FIG. 5A) Human adult PBMCs were stimulated for 18 hours with the positive control compound R848 or compound 037 and its analogs at 33 μM. Production human TNF was measured in cell-free supernatants by ELISA (N=5). […] Results are shown as the median, the 25th and 75th percentiles (boxes) and the 5th and 95th percentiles (whiskers). **p<0.01 determined by repeated measure one-way ANOVA with Dunnett's multiple comparison test on log-transformed data and comparing each compound with DMSO (control condition).
THP-1 Cell Line and Culture Conditions. The THP1-Lucia™ cell line was obtained from Invivogen (San Diego, Calif.). THP1-Lucia cells, which are human monocytic cells derived from the blood of a child with leukemia, contain an NF-kB-inducible Luc reporter construct. This allows NF-kB activation to be measured by quantifying the luminescence from the secreted luciferase enzyme. THP1-Lucia cells were cultured in RPMI 1640 supplemented with 10% non-heat inactivated fetal bovine serum (FBS), 10 mM HEPES, 1.0 mM sodium pyruvate, 50 ug/ml Pen-Strep, and 100 ug/mL Normocin™. Once cultured, the cells were stored in a 37° C. incubator with 5% CO2 and a humidified atmosphere. […]
NF-kB-induced Luminescence Assay. […] Immediately after adding the substrate, the luminescence was read using a PerkinElmer Envision plate reader.

[5] = test system: human adult PBMCs; assay: 9-plex multiplex cytokine assay after stimulation of adult PBMCs; format: cell-based; settings: 0.1 μM-33 μM, 18 hours, 10% autologous plasma, N=4; compared with R848
Description: Shown is a 9-plex multiplex cytokine assay after stimulation of adult peripheral blood mononuclear cells (PBMCs) with compound 037 or R848 at four different concentrations (0.1 μM-33 μM). Radar plots of immune polarizing cytokine production from human adult PBMCs stimulated for 18 hours in 10% autologous plasma, represented as fold-change over RPMI unstimulated control (N=4).
as §2

[6] = test system: primary human blood mononuclear cells (PBMC); assay: TNF AlphaLISA screen on primary human PBMCs; format: cell-based; settings: hit = robust Z score >2 in both duplicates and in at least 2 of 3 donors
Description: To identify immunomodulators/adjuvants that robustly activate human immune cells, ˜200,000 small molecules were tested against THP1 NF-κB reporter cells in a screen. As there is evidence that cell culture lines such as THP-1 cells may not model responses of natural primary human leukocytes, smaller-scale novel high throughput screening methodology was also employed, in which 9,000 commercially available compounds (focusing on small molecule library plates that had relatively high # of hits form the THP-1 screen) were screened using primary human blood mononuclear cells (PBMC) from three different adult human donors (TNFαLISA Assay) (FIGS. 1A-1C).
TNF AlphaLISA screen was comprised of three parts: 1) human peripheral blood collection and PBMC isolation—human adult peripheral blood was collected with written consent. PBMCs were isolated from the blood using Ficoll density gradient. […]
Based on antibody-coated fluorometric excitation/emission beads, the Alpha technology (PerkinElmer) enables the detection and screening of target molecules, in this case TNFα, in a no-wash, highly sensitive, quantitative assay compatible with high throughput screening.
TNFαLISA Assay. […] Viability was assessed by trypan blue staining and cells were then resuspended to 6.67×10^5 viable cells/mL in DMEM with 10% autologous plasma. […]

With Cc1ccc(-c2cn3cc(F)cnc3n2)cc1NC(=O)C(c1ccccc1)C(C)C (stereo not drawn) [FRF-03-082, N-(5-(6-Fluoroimidazo[1,2-a]pyrimidin-2-yl)-2-methylphenyl)-3-methyl-2-phenylbutanamide] the “TNF (Median)” value ([1]; 33 μM, ELISA, median of N=3-5, no unit in table (FIGS. 6B/7B express TNF concentration in ng/ml)) was 1.008, the Activity class ([1]; classified according to TNF % vs R848, 33 μM) was “A (high activity—class A: TNF % >15%)” and the “TNF % (Median)” value ([1]; median percentage TNF production as compared to R848, 33 μM) was 41.65%.

Cc1cnc2nc(-c3ccc(C)c(NC(=O)c4ccccc4C(F)(F)F)c3)cn2c1 [FRF-02-144-3, N-(2-Methyl-5-(6-methylimidazo[1,2-a]pyrimidin-2-yl)phenyl)-2-(trifluoromethyl)benzamide] was tested, and the “activation of mouse splenocytes (murine IL-6) and human PBMCs (TNF)” value [2] was “activates both human PBMCs and mouse splenocytes”.

With CCC(C(=O)Nc1cc(-c2cn3cccnc3n2)ccc1C)c1ccccc1 (stereo not drawn) [Compound 37] the “induction of TNF and IL-1β” value ([3]; adult and elderly PBMCs stimulated for 18 hours, N=5) was “induce TNF and IL-1β”, the “potency rank as inducer of innate immune cytokines among 24 confirmed hits” value ([3]; adult and elderly PBMCs, 18 hours) was “most potent inducers of innate immune cytokines” and the “NF-κB-driven expression of luciferase” value [4] was “little activity”. For the same compound, the “cytokine response (9-plex), fold-change over RPMI unstimulated control” value [5] was “broad concentration-dependent cytokine response” and the “hit in PBMC TNFαLISA screen” value [6] was “identified”.
